In PMC7105882, “Plasmodium Perforin-Like Protein Pores on the Host Cell Membrane Contribute in Its Multistage Growth and Erythrocyte Senescence” (Frontiers in Cellular and Infection Microbiology, 2020):

Molecular target: T1, PfPLP2 (rPMD2, pan-MACPF domain of perforin-like protein 2) (Plasmodium falciparum, UniProt Q8I5P0)
T1 construct: gene PF3D7_1216700; rPMD2, recombinant His-tagged MACPF domain of PfPLP2
Assay: inhibition of erythrocyte lysis by purified rPMD2; thermal protection of purified rPMD2 (modified CETSA)
Format: biochemical

T1 sequence (Q8I5P0 entry or part of it): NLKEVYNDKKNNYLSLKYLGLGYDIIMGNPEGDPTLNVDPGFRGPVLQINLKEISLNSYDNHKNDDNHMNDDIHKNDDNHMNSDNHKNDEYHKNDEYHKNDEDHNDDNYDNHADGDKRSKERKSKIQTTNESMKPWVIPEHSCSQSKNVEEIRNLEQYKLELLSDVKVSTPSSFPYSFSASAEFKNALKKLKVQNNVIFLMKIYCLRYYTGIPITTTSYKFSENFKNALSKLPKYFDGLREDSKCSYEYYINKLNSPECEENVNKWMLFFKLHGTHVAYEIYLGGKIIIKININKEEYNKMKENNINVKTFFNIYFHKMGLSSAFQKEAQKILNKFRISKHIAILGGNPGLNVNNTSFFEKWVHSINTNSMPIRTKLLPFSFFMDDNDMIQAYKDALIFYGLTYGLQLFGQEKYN

For Cn1cc(/C=C2\NC(=S)NC2=O)c2ccccc21 [C01, (Z)-5-((1-methyl-1H-indol-3-yl)methylene)-2-thioxoimidazolidin-4-one], the “inhibition of erythrocyte lysis by purified rPMD2; thermal protection of purifie” value was “C01 and C02 could inhibit the activity of both rPMD1 and rPMD2 in the sub-micromolar range”.
With O=C1NC(=S)N/C1=C\c1csc2ccccc12 [C02, (Z)-5-(benzo[b]thiophen-3-ylmethylene)-2-thioxoimidazolidin-4-one] the “inhibition of erythrocyte lysis by purified rPMD2; thermal protection of purifie” value was “C01 and C02 could inhibit the activity of both rPMD1 and rPMD2 in the sub-micromolar range”.
